Data from patent publication US20250302740A1, “A CONTROLLED RELEASE, ANTIMICROBIAL GEL FOR THE TREATMENT OF VAGINAL INFECTIONS” (priority 2022, published 2025).
Read-outs that look alike come from different tables or passages of the source. Blank lines part the entries; values can stand above or below the molecule they belong to.

Columns and labels:
Gardnerella vaginalis = assay: MIC and MBC against Gardnerella vaginalis; assay type: cell-based
Procedure: (§1) A study was carried out to determine the effectiveness of thymol and carvacrol, singly or in combination, against bacterial vaginosis, trichomoniasis, candidiasis and lactobacilli relative to metronidazole, clotrimazole and clindamycin.
(§2) The results are shown in Table 2, wherein minimum inhibitory concentration (MIC) and minimum bactericidal (or fungicidal) concentration (MBC or MFC) are shown: […]

Lactobacillus = assay: MIC and MBC against Lactobacillus; assay type: cell-based
Procedure: as §1, §2

G. vaginalis = conditions: cited from earlier work
Candida albicans = assay: MIC and MFC against Candida albicans; assay type: cell-based
Procedure: as §1, §2

[1] = test system: Lactobacillus acidophilus; assay: Inhibition of Lactobacillus acidophilus across thymol concentration range; assay type: cell-based; conditions: steady rate across the concentration range
Text: Lactobacillus acidophilus, with a steady rate of <10% inhibition of Lactobacillus acidophilus across the concentration range, compared to inhibition range of 10% to 100% across the same concentration range.

C. albicans biofilms = conditions: cited from earlier work
[2] = test system: Gardnerella vaginalis biofilm; conditions: cited from earlier work; for Mature biofilm inhibition: Gardnerella mature biofilm; for Native biofilm inhibition: Gardnerella native biofilm
[3] = test system: Gardnerella vaginalis biofilm; conditions: cited from earlier work

Compound: CCC[C@@H]1C[C@@H](C(=O)N[C@@H]([C@H]2O[C@H](SC)[C@H](O)[C@@H](O)[C@H]2O)[C@H](C)Cl)N(C)C1 [Clindamycin, reference compound]
MBC (Gardnerella vaginalis; read-out: MBC): 8 µg/mL
MIC (Gardnerella vaginalis; read-out: MIC): 4 µg/mL
MIC (Lactobacillus; read-out: MIC): 1000 µg/mL

Compound: Cc1ccc(C(C)C)c(O)c1 [Thymol]
Adhesion of G. vaginalis to human vaginal cells (G. vaginalis): interfere with the adhesion
MFC (Candida albicans; read-out: MFC): 2500 µg/mL
MIC (Candida albicans; read-out: MIC): 125 µg/mL
Inhibition of Lactobacillus acidophilus [1]: < 10%
MBC (Gardnerella vaginalis; read-out: MBC): 250 µg/mL
MIC (Gardnerella vaginalis; read-out: MIC): 175 µg/mL
Destruction of mature biofilms (C. albicans biofilms; C. albicans mature biofilms): considerable effect
Reduction in biofilms formed (C. albicans biofilms; C. albicans, 0.5xMIC, P<0.05): significant reduction
Mature biofilm inhibition ([2]; 1/4 MIC): 13.20%
Mature biofilm inhibition ([2]; 1 MIC): 26.18%
Native biofilm inhibition ([2]; 1/8 MIC): 11.39%
Native biofilm inhibition ([2]; 1 MIC): 32.77%

Compound: Cc1ccc(C(C)C)cc1O [Carvacrol]
MFC (Candida albicans): 1250 µg/mL
MIC (Candida albicans): 625 µg/mL
MBC (Gardnerella vaginalis): 156 µg/mL
MIC (Gardnerella vaginalis): 156 µg/mL
MBC (Lactobacillus): 2440 µg/mL
MIC (Lactobacillus): 2440 µg/mL

Now from value to molecule, other results behind:

MIC (Gardnerella vaginalis; read-out: MIC): 64 µg/mL
MIC (Lactobacillus; read-out: MIC): ≥ 1000 µg/mL
Compound: Cc1ncc([N+](=O)[O-])n1CCO [Metronidazole, reference compound]
Prevention of biofilm formation ([3]; Gardnerella vaginalis): only able to prevent biofilm formation
Inhibition or killing of mature biofilm ([3]; mature biofilm of Gardnerella vaginalis): unable to inhibit or kill

MIC (Candida albicans; read-out: MIC): 1000 µg/mL
Compound: Clc1ccccc1C(c1ccccc1)(c1ccccc1)n1ccnc1 [Clotrimazole, reference compound]
MFC (Candida albicans; read-out: MFC): ≥ 2000 µg/mL
